Measured values published in patent US20250333482A1, “MODULATORS OF MESOTHELIAL ECM MOVEMENT” (Helmholtz Zentrum München Deutsches Forschungszentrum Für …, priority 2021, published 2025).

How the values were obtained:
TGFβ signaling = assay: Ex vivo mouse lung biopsies treated with granulocytes, then TGFβ inhibitors; format: cell-based; conditions: for matrix invasion: in the presence of granulocytes; for phosphorylated SMAD (pSMAD): mouse lung biopsies treated with granulocytes
Procedure: (§1) C57BL/6J male mice (6-8 weeks age) used to study the movement of lung matrix. After organ withdrawal 4 mm biopsy punches of murine lungs were generated. To obtain ectopic labeling of matrix, the inventors generated a labelling solution by mixing NHS-ester 1:1 with 100 mM pH 9.0 sodium bicarbonate buffer. Sterile Whatman filter paper (Sigma Aldrich) biopsy punches where soaked in NHS-labelling solution, and locally placed on the lung biopsy surface. After one minute, the labelling punch was removed. Mouse lung biopsies were cocultured in the RPMI medium (10% FBS with 1% Pen/Strep and 0.1% AmB) consist of different sub types of immune cells (0.1×10^6 cells/biopsy) isolated from the healthy and idiopathic pulmonary fibrosis human donors. Mouse lung biopsies with immune cells were then cultured in the ex vivo condition provided with 5% C02 at 37° C.
(§2) After 48 hours, mouse lung biopsies were fixed with the 4% formalin and incubated for overnight at 4° C. followed by PBS wash. Human lung tissues where obtained, labelled, and cultivated for 24 hours as described above.
(§3) Matrix invasion was calculated using histological sections, quantifying FITC signal per area via ImageJ (1.52i). Quantification of immunolabeling was performed in randomly distributed ROIs/FOVs. Multiphoton images were analyzed using Fiji plugins Fraklac V. 2.5 and LocalThickness_V-4.0.2.
The inventors sought to characterize the signaling pathways by which immune cells trigger matrix invasion and fibrosis and we naturally sought to investigate the known chief proponent, TGFβ. They wondered whether the fibrotic cascade of immune cells might start with mesothelial TGFβ expression. Mouse lung biopsies were treated with granulocytes, followed by administering two TGFβ inhibitors, Repsox and LDN-212854, in separate experiments (FIG. 2A). Inhibition of TGFβ signaling in both chemical assays decreased phosphorylated SMAD (pSMAD), which is the major mediator of TGFβ-induced signaling. Furthermore, inhibiting TGFβ reduced matrix invasion, even in the presence of granulocytes. Moreover, adding granulocytes alone led to increased phosphorylated SMAD signaling in mesothelium. These findings indicate granulocytes trigger TGFβ expression in mesothelium to initiate matrix accumulation and irrigation.

C57BL/6J mice = assay: Pharmacologic treatment regime in the bleomycin-induced lung fibrosis model; format: in vivo, mouse; conditions: for pleural matrix pools: after bleomycin-induced injury
Procedure: The inventors generated a labelling solution by mixing 5 μl NHS-ester (25 mg/ml) with 5 μl of 100 mM pH 9.0 sodium bicarbonate buffer, combining with 40 μl PBS to a total volume of 50 μl. Labelling solution was applied intrapleurally (for lung and/or heart fibrosis model) under isoflurane anesthesia with a 30 G cannula. Abdominal labeling was performed by injecting 100 μl of labelling solution intra-peritoneal (for liver and/or kidney fibrosis model).
The oropharyngeal administration of bleomycin for the induction of pulmonary fibrosis is carried out in an antagonistic anesthesia in C57BL/6J mice of both sexes (6-8 weeks age). After the toe-pinch reflex is absent, the mouse is placed on the incisors of the upper jaw and thus kept in an upright position. The tongue is carefully fixed with is held to the side with tweezers and the nose of the animal is covered with tweezers. By keeping the nose closed, the mouse is forced to breathe through the mouth. With the help of a pipette, bleomycin is dissolved in a dosage of 2 units/kg KGW in 80 μl PBS carefully into the throat. As soon as the animal has inhaled the solution, it will be
Hot plate transferred (duration approx. 30 to 60 seconds). After antagonization animals were housed for 14 days. Nintedanib was added 1 hour before bleomycin installation and every other day intra peritoneal 10 μM.
Pirfenidone (0.07 mg/kg), Nintedanib (0.21 mg/kg) and Cathepsin Inhibitor B (0.15 mg/kg) were injected 1 hour before bleomycin installation and every other day intra peritoneal in a volume of 100 μl in physiological saline solution.
as §3

[1] = test system: fibrotic human lung tissue; assay: Ex vivo matrix flow in fibrotic human lung tissue; format: cell-based
Procedure: All tissues (PFA, ST) used in this study were obtained with properly informed consent of patients. All experimental procedures were performed in accordance with the Ethics committee vote number/Study protocol number: 333-10 Parent Proposal number: BA34/2018.
as §1, §2

[2] = bleomycin, intra peritoneal 1 hour before and every other day

With `c1cc(-c2cnn3cc(-c4ccc(N5CCNCC5)cc4)cnc23)c2cccnc2c1` [LDN-212854] the matrix invasion (TGFβ signaling) was “reduced” and the “phosphorylated SMAD (pSMAD)” value (TGFβ signaling) was “decreased”.

With `COC(=O)c1ccc2c(c1)NC(=O)/C2=C(\Nc1ccc(N(C)C(=O)CN2CCN(C)CC2)cc1)c1ccccc1` [Nintedanib] the pleural matrix pools (C57BL/6J mice) was “rescue”, the bleomycin-induced mortality (C57BL/6J mice; [2]) was “prevent” and the “matrix invasion into lungs (matrix movements)” value (from here on “matrix invasion into lungs”) (C57BL/6J mice; [2]) was “inhibiting matrix movements”. The “survival rates of lung injured animals” value (C57BL/6J mice; [2]) was “comparable”.

In the case of `Cc1ccc(=O)n(-c2ccccc2)c1` [Pirfenidone], the pleural matrix pools (C57BL/6J mice) is reported as “rescue”, the bleomycin-induced mortality (C57BL/6J mice; [2]) is reported as “prevent” and the “matrix invasion into lungs” value (C57BL/6J mice; [2]) is reported as “inhibiting matrix movements”. For the same compound, the “survival rates of lung injured animals” value (C57BL/6J mice; [2]) was “comparable”.

In the case of `Cc1cccc(-c2[nH]ncc2-c2ccc3ncccc3n2)n1` [Repsox], the matrix invasion (TGFβ signaling) is reported as “reduced” and the “phosphorylated SMAD (pSMAD)” value (TGFβ signaling) is reported as “decreased”.

`CC(NC(=O)[C@H](Cc1ccccc1)NC(=O)OCc1ccccc1)C(=O)CF` (stereo partly shown) [Z-FA-FMK] was tested, and the fluid matrix flows [1] was “blocks”, the pleural matrix pools (C57BL/6J mice) was “rescue” and the bleomycin-induced mortality (C57BL/6J mice; [2]) was “abrogated”. For the same compound, the fibrosis development (C57BL/6J mice; [2]) was “completely prevented”, the “matrix invasion into lungs” value (C57BL/6J mice; [2]) was “completely prevented” and the “survival rates of lung injured animals” value (C57BL/6J mice; [2]) was 100%. For the same compound, the bleomycin-induced mortality (C57BL/6J mice; bleomycin, intra peritoneal 1 hour before and every other day, listed as Cathepsin B inhibitor) was “prevent”.
